Experimental data published in patent US10336762B2 (priority 2017, dated 2019).

Columns and labels:
TNFα = assay: cells; type: cell-based, human; details: Homo sapiens, Monocyte, LPS-stimulated human monocytes, TNFα content; read-out: EC50 TNF
IRAK4 enzyme = IRAK4 enzyme (Homo sapiens (Human), UniProt Q9NWZ3); assay: biochemical; type: biochemical; details: IRAK4 enzyme, TR-FRET, 500 μM ATP
Sequence of IRAK4 enzyme (Q9NWZ3 whole entry): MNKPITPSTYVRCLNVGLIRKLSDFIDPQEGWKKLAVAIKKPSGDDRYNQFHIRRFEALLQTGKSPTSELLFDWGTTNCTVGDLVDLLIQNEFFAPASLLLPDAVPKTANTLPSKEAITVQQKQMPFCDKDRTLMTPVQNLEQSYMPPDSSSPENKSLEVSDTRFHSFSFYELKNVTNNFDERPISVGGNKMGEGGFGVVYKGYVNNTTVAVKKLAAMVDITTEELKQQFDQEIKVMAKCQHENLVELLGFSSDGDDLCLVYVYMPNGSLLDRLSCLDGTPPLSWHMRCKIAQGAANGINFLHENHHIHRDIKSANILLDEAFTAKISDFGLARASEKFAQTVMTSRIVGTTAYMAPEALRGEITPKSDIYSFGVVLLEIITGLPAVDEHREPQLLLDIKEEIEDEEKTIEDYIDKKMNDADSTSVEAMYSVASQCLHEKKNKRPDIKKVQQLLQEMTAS

CC(C)(O)[C@H](F)CNC(=O)c1cnc(-c2ccc3cc(C#N)cnn23)cc1Nc1cnn2c1CCCC2 [Example 129, (R)-6-(3-cyanopyrrolo[1,2-b]pyridazin-7-yl)-N-(2-fluoro-3-hydroxy-3-methylbutyl)-4-((4,5,6,7-tetrahydropyrazolo[1,5-a]pyridin-3-yl)amino)nicotinamide]
EC50 (TNFα): 377 nM | IC50 (IRAK4 enzyme): 6 nM

CC1(C)OCCC1Nc1cc(-c2ccc3cc(C#N)cnn23)ncc1C(=O)NC[C@@H](F)C(C)(C)O (stereo partly drawn) [Example 130, 6-(3-cyanopyrrolo[1,2-b]pyridazin-7-yl)-4-((2,2-dimethyltetrahydrofuran-3-yl)amino)-N-((R)-2-fluoro-3-hydroxy-3-methylbutyl)nicotinamide]
EC50 (TNFα): 221 nM | IC50 (IRAK4 enzyme): 3 nM

CC(=O)NC12CCC(NC(=O)c3cnc(-c4ccc5cc(C#N)cnn45)cc3NC(C)C)(CC1)CC2 [Example 131, N-(4-acetamido-bicyclo[2.2.2]octan-1-yl)-6-(3-cyanopyrrolo[1,2-b]pyridazin-7-yl)-4-(isopropylamino) nicotinamide]
EC50 (TNFα): 154 nM | IC50 (IRAK4 enzyme): 1 nM

CC(=O)NC12CC(NC(=O)c3cnc(-c4ccc5cc(C#N)cnn45)cc3NC(C)C)(C1)C2 [Example 132, N-(3-acetamidobicyclo [1.1.1]pentan-1-yl)-6-(3-cyanopyrrolo[1,2-b]pyridazin-7-yl)-4-(isopropylamino) nicotinamide]
EC50 (TNFα): 222 nM | IC50 (IRAK4 enzyme): 5 nM

COCCCNc1cc(-c2ccc3cc(C#N)cnn23)ncc1C(=O)NC[C@@H](F)C(C)(C)O [Example 133, (R)-6-(3-cyanopyrrolo[1,2-b]pyridazin-7-yl)-N-(2-fluoro-3-hydroxy-3-methylbutyl)-4-((3-methoxypropyl)amino) nicotinamide]
EC50 (TNFα): 91 nM | IC50 (IRAK4 enzyme): 1 nM

CC(C)Nc1cc(-c2ccc3cc(C#N)cnn23)ncc1C(=O)NC1CCC(NC(=O)C2(C)COC2)CC1 (stereo not shown) [Example 134, 6-(3-cyanopyrrolo[1,2-b]pyridazin-7-yl)-4-(isopropylamino)-N-((1r,4r)-4-(3-methyloxetane-3-carboxamido)cyclohexyl)nicotinamide]
EC50 (TNFα): 101 nM | IC50 (IRAK4 enzyme): 1 nM

CC(C)Nc1cc(-c2ccc3cc(C#N)cnn23)ncc1C(=O)NC1CCC(NC(=O)C(C)(C)O)CC1 (stereo not shown) [Example 135, 6-(3-cyanopyrrolo[1,2-b]pyridazin-7-yl)-N-((1r,4r)-4-(2-hydroxy-2-methylpropanamido)cyclo-hexyl)-4-(isopropylamino) nicotinamide]
EC50 (TNFα): 130 nM | IC50 (IRAK4 enzyme): 2 nM

CC1(F)CC(Nc2cc(-c3ccc4cc(C#N)cnn34)ncc2C(=O)NC[C@@H](F)C(C)(C)O)C1 (stereo partly drawn) [Example 136, (R)-6-(3-cyanopyrrolo[1,2-b]pyridazin-7-yl)-N-(2-fluoro-3-hydroxy-3-methylbutyl)-4-((3-fluoro-3-methylcyclobutyl)amino) nicotinamide]
EC50 (TNFα): 163 nM | IC50 (IRAK4 enzyme): 2 nM

CC(C)(O)[C@H](F)CNC(=O)c1cnc(-c2ccc3cc(C#N)cnn23)cc1NCC1CC1(F)F (stereo partly drawn) [Example 137, 6-(3-cyanopyrrolo[1,2-b]pyridazin-7-yl)-4-(((2,2-difluorocyclopropyl)methyl)amino)-N-((R)-2-fluoro-3-hydroxy-3-methylbutyl)nicotinamide]
EC50 (TNFα): 140 nM | IC50 (IRAK4 enzyme): 2 nM

CC(C)(O)Cn1cc(Nc2cc(-c3ccc4cc(C#N)cnn34)ncc2C(=O)NC[C@@H](F)C(C)(C)O)cn1 [Example 138, (R)-6-(3-cyanopyrrolo[1,2-b]pyridazin-7-yl)-N-(2-fluoro-3-hydroxy-3-methylbutyl)-4-((1-(2-hydroxy-2-methylpropyl)-1H-pyrazol-4-yl)amino)nicotinamide]
EC50 (TNFα): 117 nM | IC50 (IRAK4 enzyme): 1 nM

CC(C)Nc1cc(-c2ccc3cc(C#N)cnn23)ncc1C(=O)NC1CCS(=O)(=O)CC1 [Example 139, 6-(3-cyanopyrrolo[1,2-b]pyridazin-7-yl)-N-(1,1-dioxidotetrahydro-2H-thiopyran-4-yl)-4-(isopropylamino) nicotinamide]
EC50 (TNFα): 254 nM | IC50 (IRAK4 enzyme): 19 nM

CC(C)(O)[C@H](F)CNC(=O)c1cnc(-c2ccc3cc(C#N)cnn23)cc1Nc1ccc(C#N)cc1 [Example 140, (R)-4-((4-cyanophenyl)amino)-6-(3-cyanopyrrolo[1,2-b]pyridazin-7-yl)-N-(2-fluoro-3-hydroxy-3-methylbutyl)nicotinamide]
EC50 (TNFα): 58 nM | IC50 (IRAK4 enzyme): < 1 nM

CC(C)(O)[C@H](F)CNC(=O)c1cnc(-c2ccc3cc(C#N)cnn23)cc1Nc1cccc(C#N)c1 [Example 141, (R)-4-((3-cyanophenyl)amino)-6-(3-cyano-pyrrolo[1,2-b]pyridazin-7-yl)-N-(2-fluoro-3-hydroxy-3-methylbutyl)nicotinamide]
EC50 (TNFα): 70 nM | IC50 (IRAK4 enzyme): < 1 nM

Cc1nsc(Nc2cc(-c3ccc4cc(C#N)cnn34)ncc2C(=O)NC[C@@H](F)C(C)(C)O)n1 [Example 142, (R)-6-(3-cyanopyrrolo[1,2-b]pyridazin-7-yl)-N-(2-fluoro-3-hydroxy-3-methylbutyl)-4-((3-methyl-1,2,4-thiadiazol-5-yl)amino) nicotinamide]
EC50 (TNFα): 169 nM | IC50 (IRAK4 enzyme): 4 nM

CC(C)(O)[C@H](F)CNC(=O)c1cnc(-c2ccc3cc(C#N)cnn23)cc1Nc1ccccc1C#N [Example 143, (R)-4-((2-cyanophenyl)amino)-6-(3-cyanopyrrolo[1,2-b]pyridazin-7-yl)-N-(2-fluoro-3-hydroxy-3-methylbutyl)nicotinamide]
EC50 (TNFα): 720 nM | IC50 (IRAK4 enzyme): 18 nM

CC(C)(O)[C@H](F)CNC(=O)c1cnc(-c2ccc3cc(C#N)cnn23)cc1Nc1nnc(N2CCOCC2)o1 [Example 144, (R)-6-(3-cyanopyrrolo[1,2-b]pyridazin-7-yl)-N-(2-fluoro-3-hydroxy-3-methylbutyl)-4-((5-morpholino-1,3,4-oxadiazol-2-yl)amino) nicotinamide]
EC50 (TNFα): > 10000 nM | IC50 (IRAK4 enzyme): 656 nM

CC(C)(O)[C@H](F)CNC(=O)c1cnc(-c2ccc3cc(C#N)cnn23)cc1Nc1cncnc1 [Example 145, (R)-6-(3-cyanopyrrolo[1,2-b]pyridazin-7-yl)-N-(2-fluoro-3-hydroxy-3-methylbutyl)-4-(pyrimidin-5-ylamino)nicotinamide]
EC50 (TNFα): 70 nM | IC50 (IRAK4 enzyme): < 1 nM

Cc1nnc(Nc2cc(-c3ccc4cc(C#N)cnn34)ncc2C(=O)NC[C@@H](F)C(C)(C)O)s1 [Example 146, (R)-6-(3-cyanopyrrolo[1,2-b]pyridazin-7-yl)-N-(2-fluoro-3-hydroxy-3-methylbutyl)-4-((5-methyl-1,3,4-thiadiazol-2-yl)amino)nicotinamide]
EC50 (TNFα): 117 nM | IC50 (IRAK4 enzyme): 1 nM

CC(C)(O)[C@H](F)CNC(=O)c1cnc(-c2ccc3cc(C#N)cnn23)cc1N[C@H]1[C@@H]2COC[C@@H]21 [Example 147, 4-(((1R,5S,6r)-3-oxabicyclo[3.1.0]hexan-6-yl)amino)-6-(3-cyano-pyrrolo[1,2-b]pyridazin-7-yl)-N-((R)-2-fluoro-3-hydroxy-3-methylbutyl)nicotinamide]
EC50 (TNFα): 47 nM | IC50 (IRAK4 enzyme): < 1 nM

CC(C)(O)[C@H](F)CNC(=O)c1cnc(-c2ccc3cc(C#N)cnn23)cc1N[C@@H]1[C@@H]2COC[C@@H]21 [Example 148, 4-(((1R,5S,6s)-3-oxabicyclo[3.1.0]hexan-6-yl)amino)-6-(3-cyano-pyrrolo[1,2-b]pyridazin-7-yl)-N-((R)-2-fluoro-3-hydroxy-3-methylbutyl)nicotinamide]
EC50 (TNFα): 206 nM | IC50 (IRAK4 enzyme): 2 nM
